Patent US7041821B2, “Synthetic molecules for labeling histidine-rich proteins” (The Regents of the University of California, priority 2003, dated 2006)
Where two headings read alike, the source gives them in different places.

Experiments:
[1] = test system: HEK293 cells expressing a His6-tagged test-protein
From the text: A gene encoding the peptide […] (His6-) was created by the polymerase chain reaction (PCR), using pRSETB template (Invitrogen). BglII and SacII restriction sites were incorporated at the 5′ and 3′ ends of the gene, by using the forward primer […] and reverse primer […]. For expression on the surface of mammalian cells, the gene was inserted into the pDisplay vector (Invitrogen) using the BglII and SacII restriction sites. This vector supplies the necessary sequences for entry into the secretory pathway and anchoring to the outer face of the plasma membrane.
HEK 293 cells were plated onto sterilized glass cover slips on 2 cm dishes or 10 cm plates and grown to 50–100% confluency in DMEM supplemented with 10% FBS at 37° C. in 6% CO2. Cells were transfected with FUGENE-6 transfection reagent (Roche Molecular Biochemicals). After 24 to 48 h incubation at 37° C. in culture medium, the cells were washed once with Hanks' balanced salt solution buffer (HBSS). Then 2 mL of the staining solution (HEPES buffer with 1 μM free Zn^2+ (pH 7.4), ˜1–1.5 μM of compound (I) (DMSO stock)) was added to the cells. After 1 min, the cells were washed twice with HBSS and imaged. Imaging experiments were performed with excitation at 540 nm (25 nm bandwidth), emission at 595 nm (50 nm bandwidth), and dichroic mirror at 560 nm for the Zn-compound (I); and excitation at 420 nm (20 nm bandwidth), emission at 475 nm (40 nm bandwidth) and dichroic mirror at 450 nm for CFP.
(§1) A solution of Compound (I) in buffer containing 1 μM Zn^2+ was added extracellularly to intact HEK293 cells expressing a His6-tagged test-protein, targeted to the surface of the cell membrane.

[2] = Procedure: Formation of the Zn-complex can be monitored by absorbance or fluorescence emission and excitation shifts. Aliquots of a dye stock solution in DMSO were added to 500 μL of buffers containing 10 nM, 100 nM, 1 μM or 10 μM free zinc (controlled by Ca^2+/Zn^2+ EGTA and 10 mM HEPES; see Walkup, G. K., Burdette, S. C., Lippard, S. J., and Tsien, R. Y., J. Am. Chem. Soc. 2000, 122, 5644–5645) or zinc free (10 mM HEPES, 1 mM EDTA buffer) solutions to yield approximately 1–1.5 μM dye solution (ε˜65,500 M^−1 cm^−1).
[3] = test system: poly-histidine peptide
Procedure: as §1

Remark: listed apart in the source
[4] = test system: his6-CFP; settings: +Zn2+ + his6-CFP: 1 μM dye, pH 7.2, 100 μM ZnCl2 and 1 μM his6-CFP
Procedure: Excitation (ex), emission (em) maxima (in nm) and fluorescence quantum yields (φ) of 1 μM dye in 100 mM KCl 10 mM MOPS pH 7.2 with 50 μM EDTA (—Zn^2+), 100 μM ZnCl2 (+Zn^2+) or 100 μM ZnCl2 and 1 μM his6-CFP (+Zn^2++his6-CFP).

[5] = +Zn2+: 1 μM dye, pH 7.2, 100 μM ZnCl2
[6] = −Zn2+: 1 μM dye, 100 mM KCl 10 mM MOPS pH 7.2, 50 μM EDTA

| Emission maximum (em) [5] [nm] | Excitation maximum (ex) [5] [nm] | Fluorescence quantum yield (φ) [5] | Emission maximum (em) [6] [nm] | Excitation maximum (ex) [6] [nm] | Fluorescence quantum yield (φ) [6] | Emission maximum (em) [4] [nm] | Excitation maximum (ex) [4] [nm] | Fluorescence quantum yield (φ) [4] | Compound | Speed of staining ([1]; intact HEK293 cells, 1 μM Zn2+) | Staining of non-transfected cells ([1]; neighboring non-transfected HEK293 cells, same staining) | Reversibility of staining ([1]; washing with EDTA solutions (FIG. 7)) | Staining of transfected cells ([1]; ~1–1.5 μM compound, 1 μM free Zn2+, added extracellularly, 1 min, washed) | Extinction coefficient ε ([2]; dye solution in HEPES buffers) | Fluorescence quantum yield ([2]; virtually unchanged between 0 and 1 μM free Zn2+ (FIG. 2)) | Fluorescence anisotropy binding [3] |
| --- | --- | --- | --- | --- | --- | --- | --- | --- | --- | --- | --- | --- | --- | --- | --- | --- |
| 560 | 523 | 0.37 | 544 | 517 | 0.47 | 560 | 531 | 0.19 | 2′,7′-bis(2-dimethylaminoethanesulfonamido)-4′,5′-difluorofluorescein [Compound II] | – | – | – | – | – | – | – |
| 566 | 533 | 0.35 | 547 | 525 | 0.60 | 570 | 545 | 0.08 | 2′,7′-bis(2-pyridylsulfonamido)-4′,5′-difluorofluorescein [Compound IV] | – | – | – | – | – | – | – |

| Compound | Emission maximum (em) [5] [nm] | Excitation maximum (ex) [5] [nm] | Fluorescence quantum yield (φ) [5] | Emission maximum (em) [6] [nm] | Excitation maximum (ex) [6] [nm] | Fluorescence quantum yield (φ) [6] | Emission maximum (em) [4] [nm] | Excitation maximum (ex) [4] [nm] | Fluorescence quantum yield (φ) [4] | Speed of staining ([1]; intact HEK293 cells, 1 μM Zn2+) | Staining of non-transfected cells ([1]; neighboring non-transfected HEK293 cells, same staining) | Reversibility of staining ([1]; washing with EDTA solutions (FIG. 7)) | Staining of transfected cells ([1]; ~1–1.5 μM compound, 1 μM free Zn2+, added extracellularly, 1 min, washed) | Extinction coefficient ε ([2]; dye solution in HEPES buffers) | Fluorescence quantum yield ([2]; virtually unchanged between 0 and 1 μM free Zn2+ (FIG. 2)) | Fluorescence anisotropy binding [3] |
| --- | --- | --- | --- | --- | --- | --- | --- | --- | --- | --- | --- | --- | --- | --- | --- | --- |
| Cc1c(O)c(NS(=O)(=O)c2ccccn2)cc2c1Oc1c(cc(NS(=O)(=O)c3ccccn3)c(O)c1C)C21OC(=O)c2ccccc21 [Compound I, 2′,7′-Bis(pyridyl-2-sulfonamido)-4′,5′-dimethylfluorescein] | 557 | 523 | 0.34 | 545 | 518 | 0.40 | 560 | 536 | 0.09 | stains cells virtually instantaneously | no staining | staining is reversible by washing with EDTA solutions | transfected cells clearly showed membrane specific fluorescent staining | ~65,500 M^−1 cm^−1 | ~0.4 | clearly indicate binding to a poly-histidine peptide |
